From patent USRE49351E1, “Cytoprotective agent” (Biogen MA Inc., priority 2009, dated 2023) come the findings set out here.

One assay concerns plasmin/α2-antiplasmin. Nature of the assay: Plasmin activity by fibrinogen zymography of plasma, mouse cerebral infarction model. In kind it is in vivo. The conditions noted are these: 10 mg/kg 1 hour after ischemia, mean ± SE, n=6. Here is the method:
The quantity of plasmin/α2-antiplasmin in plasma was measured by a fibrinogen zymography method for evaluating the plasmin activity, when a triprenyl phenol compound was administered to a mouse cerebral infarction model. As triprenyl phenol compounds, SMTP-7, SMTP-6, SMTP-22, SMTP-25, SMTP-43, and SMTP-44D were used.
The triprenyl phenol compounds were prepared same as in Example 2 and Example 5. The administration of 10 mg/kg of a triprenyl phenol compound was initiated 1 hour after the initiation of ischemia. The administration method was same as Example 3. Six mice were used for each condition.
A blood sample was taken according to the following method at 3 time points, namely after the completion of the administration 0 hour (immediately after the completion), 1 hour, and 3 hours. Under anesthesia with 1 to 1.5% isoflurane, the […] and 90 μL of blood was withdrawn from the abdominal vena cava into a syringe containing 10 μL of sodium citrate (3.8%) (sodium citrate:blood=1:9, final concentration of sodium citrate 0.38%).
After collection the blood was centrifuged (5000 rpm, 15 min, 4° C.) to separate plasma. A part of the plasma was mixed with equal quantity of a sample buffer (125 mM Tris-HCl (pH 6.8), 4% (w/v) SDS, 0.04% (w/v) bromophenol blue, 20% (w/v) sucrose), which was then divided into small fractions, and cryopreserved.
A part of the plasma was reserved and diluted 300-fold with 0.1 N NaOH and the protein content was determined by the Bradford method in order to even out the protein mass to be applied to an electrophoresis gel.
As the standard sample, a sample was prepared by reacting 10 μL of 120 nM plasmin (by SIGMA) and 10 μL of 600 nM α2-antiplasmin (by Wako Pure Chemical Industries, Ltd.) at 37° C. for 30 min, and mixing the same with 20 μL of the sample buffer.
An electrophoresis gel was prepared by overlaying a stacking gel on a 7.5% running gel containing 2 mg/mL fibrinogen (by SIGMA). Based on the determined protein mass, 3 to 15 μL of the sample was applied, so that the equal amount of protein was applied.
After electrophoresis at 10 mA/sheet, for 3 hours the stacking gel was removed and rinsed for 30 min twice with about 100 mL/gel of a rinse liquid (2.5% Triton X-100). After rinsing, incubation was carried out at 37° C. for 24 to 60 hours under gentle shaking with about 100 mL/sheet of an incubation buffer (0.1 M glycine-50 mM Tris-HCl, pH 8.3 at 37° C.).
Thereafter the gel was stained by a stain solution (0.075% CBB 8250, 22.5% methanol, 2.25% sulfosalicylic acid dihydrate, 7.5% trichloroacetic acid) at room temperature for 15 to 30 min with gentle shaking. Removing the stain solution, the gel was decolored by a decoloring solution (methanol:acetic acid:water=1:1:6), which was replaced with water at an appropriate time point according to appearance of bands observed.
The image on the gel was read in by an imaging analyzer (Printgraph (AE-6933FXCF), by ATTO) and the band intensity was evaluated. The results are expressed as a ratio to the value of the control group at 0 hour after the completion of the administration (immediately after the completion).

Assay [1] has as its system Mongolian gerbil cerebral infarction model. In words: Mongolian gerbil cerebral infarction model (acetic acid-induced thrombus): infarction area percentage and neurological symptom. In kind it is in vivo. The note with it: for Infarction area: evaluated 24 h; for Infarction area / Neurological scores: mean ± SE, n=6; for Neurological scores: score 0-4 at 24 h; for improvement rate of the infarction area percentage: 10 mg/kg, administration initiated 1 hour after the initiation of ischemia. An excerpt:
Anesthesia was induced to a male Mongolian gerbil (body weight 55 to 65 g) by inhalation of 5% isoflurane (trade name Escain, Mylan Inc.), and maintained with 1 to 1.5% isoflurane. The Mongolian gerbil was fixed in a dorsal position, and the neck was dehaired and then disinfected with 70% ethanol. After median incision of the neck, the right common carotid artery was detached, clamped to block the blood flow temporarily, and coated with 100% acetic acid by 30 reciprocating motions so as to produce a thrombus. The blood vessel was reopened after 10 min of the blockage of the blood flow to transfer the thrombus by the blood stream into the brain to make it ischemic and generate cerebral infarction. The operating field was closed with an instant adhesive (trade name Aron Alpha (Krazy Glue), Toagosei Co., Ltd.) and disinfected with 70% ethanol.
Twenty four hours after the initiation of the operation neurological symptoms were observed as an indicator for cerebral infarction. Many types of neurological symptoms specific to cerebral infarction, such as extension of a hindlimb or circling to one direction, have been reported. Applying a modified evaluation method of the method proposed by Longa, et al. (Stroke 1989; 20:84-91) postoperative neurological symptoms were evaluated as per: no deficit, 0; extension of limb, 1; circling to one direction, 2; incline posture, 3; diminished motion, 4.
With respect to statistical analysis, for multiple comparisons was conducted firstly one-way analysis of variance (ANOVA) and then a Bonferroni test was conducted, if significant difference is detected. Significant difference was positively recognized with significance level 5% (P<0.05). All the results are expressed in mean±standard error.
After the evaluation of neurological symptoms according to the above method, the animal was decapitated under anesthesia with isoflurane. The cranial bone was exfoliated of skin and opened, and, after scission of optic nerve, the brain was extirpated and dipped in a physiological saline solution to remove attached body hairs, etc. The extirpated brain was placed in a brain matrix (RBM-1000C, ASI Instruments) to carry out coronal slicing from the frontal pole at thickness of 2 mm. The slices were dipped in 2% 2,3,5-triphenyl-2H-tetrazolium chloride (TTC), and incubated for staining at 37° C. for 30 min in a CO2 incubator. The colorless TTC is reduced by hydrogen liberated by the action of dehydrogenase contained in a normal cell converting to dark red colored water-insoluble 1,3,5-triphenylformazan (TPF), so that the normal cell is stained. Unstained area (white area) was defined as an infarction area. Meanwhile, the corpus callosum, which is commissural fibers connecting the right and left cerebral hemispheres, is not stained and is white, and therefore image processing for the analyses as described below was conducted excluding the corpus callosum.
After staining images of the brain slices were taken by a digital camera under a stereoscopic microscope. For analysis of the infarction area percentage, an image analysis software Image J (Version 1.4) was used. Full, excluding the corpus callosum, images of the taken 2nd, 3rd, and 4th brain slice images were converted to grayscale. From the grayscale images a histogram for the whole brain as the object scope was obtained showing in the ordinate the frequency of occurrence (frequency) at certain brightness, and showing in the abscissa the brightness (0 to 255). The sum from 0 to 255 was defined as the area size of the whole brain, and the sum from 160 to 219 was defined as the area size of the infarction area. Then the infarction area percentage was determined according to the following formula using the total area size of the infarction areas and the total area size of the whole brain, of the 3 brain slice images. Statistical analysis was conducted as above. […]

The mark [2] stands for this setting: plasma 0 hr after completion of administration.
Where [3] appears, read: plasma 1 hr after completion of administration.
[4] abbreviates: plasma 3 hr after completion of administration.
The mark [5] stands for this setting: 1 mg/kg i.v., administration initiated 1 hr after ischemia.
[6] abbreviates: 10 mg/kg i.v., administration initiated 1 hr after ischemia.
The mark [7] stands for this setting: 10 mg/kg i.v., administration initiated 3 hr after ischemia.
[8] abbreviates: 10 mg/kg i.v., administration initiated 6 hr after ischemia.
[9] abbreviates: 0.01 mg/kg i.v., administration initiated 1 hr after ischemia.
Setting [10] is: 0.1 mg/kg i.v., administration initiated 1 hr after ischemia.

Regarding `CC(C)=CCC/C(C)=C/CCC1(C)Oc2c(c(O)cc3c2CN(C(Cc2c[nH]c4ccccc24)C(=O)O)C3=O)CC1O` (centres unmarked) [SMTP-6], the “plasmin activity (plasmin/α2-antiplasmin band intensity), ratio to control group at 0 hour” value with plasmin/α2-antiplasmin (setting [2]) came out at 1.08 ± 0.12; in the assay with plasmin/α2-antiplasmin (setting [3]), 1.17 ± 0.14; in the assay on plasmin/α2-antiplasmin (setting [4]), 1.68 ± 0.10.

For `CC(C)=CCC/C(C)=C/CC[C@@]1(C)Oc2c(c(O)cc3c2CN(CCC[C@@H](C(=O)O)N2Cc4c(cc(O)c5c4O[C@](C)(CC/C=C(\C)CCC=C(C)C)[C@@H](O)C5)C2=O)C3=O)C[C@@H]1O` [SMTP-7], the Infarction area in assay [1] (setting [5]) worked out at 11.4 ± 2.69%; in assay [1] (setting [6]) it was 7.01 ± 0.56 %; in assay [1] (setting [7]), 5.90 ± 0.36 %; in assay [1] (setting [8]), 7.93 ± 1.64 %. Besides, the Neurological scores came out at 2.67 ± 0.33 in assay [1] (setting [5]), 1.50 ± 0.67 in assay [1] (setting [6]), 1.67 ± 0.61 in assay [1] (setting [7]) and 2.00 ± 0.45 in assay [1] (setting [8]). Moreover, in assay [1], the “improvement rate of the infarction area percentage” value is 65.7%. In addition, the “plasmin activity (plasmin/α2-antiplasmin band intensity), ratio to control group at 0 hour” value is recorded as 1.49 ± 0.13 in the assay on plasmin/α2-antiplasmin (setting [2]), 3.23 ± 0.47 with plasmin/α2-antiplasmin (setting [3]) and 3.27 ± 0.67 in the assay on plasmin/α2-antiplasmin (setting [4]).

On to alteplase [reference compound], for which the Infarction area in assay [1] (setting [9]) is listed as 11.2 ± 2.74%; in assay [1] (setting [10]), 9.67 ± 2.35%; in assay [1] (setting [6]) it was 5.43 ± 1.33 %; in assay [1] (setting [7]), 11.0 ± 3.61%; in assay [1] (setting [8]), 13.8 ± 2.40%. For the same compound, the Neurological scores is recorded as 2.67 ± 0.56 in assay [1] (setting [9]); 2.00 ± 0.77 in assay [1] (setting [10]); 0.17 ± 0.17 in assay [1] (setting [6]); 1.33 ± 0.67 in assay [1] (setting [7]); 3.17 ± 0.48 in assay [1] (setting [8]). Moreover, the “improvement rate of the infarction area percentage” value in assay [1] came out at 78.9%.
